This note sets out measurements from ChEMBL document CHEMBL4732094, “Synthesis of some new benzoxazole derivatives and investigation of their anticancer activities” (Eur J Med Chem, 2021).

Each structure is given as a SMILES string.

The test system of series [1] is C6. The experiment in a line: Induction of apoptosis in rat C6 cells assessed as apoptotic cells at IC50 concentration measured after 24 hrs by Annexin V-FITC/PI staining based flow cytometry method relative to control. Format: functional. Background: A flow cytometer gives signals particle by particle.
Series [2] has as its system C6. The experiment in a line: Cytotoxicity against rat C6 cells assessed as cell viability measured after 24 hrs by MTT assay. Format: functional, cell-based. Particulars: C6, 24 h. Background: Tetrazolium assays rely on reduction of a dye to a coloured formazan, in cell work by metabolically active cells.
The nature of series [3]: Drug metabolism in human HepG2 cells assessed as amine metabolite formation after 24 hrs by LCMS-IT-TOF analysis. The class given is ADME, cell-based. The following applies: hepg2, 24 h.
In series [4] the test system is HepG2. The experiment in a line: Cytotoxicity against human HepG2 cells assessed as cell viability measured after 24 hrs by MTT assay. The class given is functional, cell-based. The following applies: HepG2, 24 h.
The nature of series [5]: Drug metabolism in human HepG2 cells assessed as oxidative dehalogenation after 24 hrs by LCMS-IT-TOF analysis. Format: ADME, cell-based. The following applies: hepg2, 24 h.
For series [6], the system named is HepG2. The experiment in a line: Induction of apoptosis in human HepG2 cells assessed as late apoptotic cells at IC50 concentration measured after 24 hrs by Annexin V-FITC/PI staining based flow cytometry method (reference value: 8.7%). The class given is functional.
The nature of series [7]: Selectivity index, ratio of IC50 for cytotoxicity against mouse NIH3T3 cells to IC50 for cytotoxicity against human HT-29 cells. The class given is toxicity, cell-based. Particulars: NIH3T3 cells versus HT-29 cells, read-out: Ratio IC50.
In series [8] the test system is C6. The experiment in a line: Inhibition of DNA synthesis in rat C6 cells assessed as reduction in cell proliferation measured after 24 to 48 hrs by BrdU proliferation assay. Format: functional, cell-based. The following applies: time 24-48 hrs.
Series [9] in a line: Selectivity index, ratio of IC50 for cytotoxicity against mouse NIH3T3 cells to IC50 for cytotoxicity against human A549 cells. Format: toxicity, cell-based. The following applies: NIH3T3 cells versus A549 cells, read-out: Ratio IC50.
Series [10] concerns HepG2. The experiment in a line: Induction of apoptosis in human HepG2 cells assessed as early apoptotic cells at IC50 concentration measured after 24 hrs by Annexin V-FITC/PI staining based flow cytometry method (reference value: 0.9%). The class given is functional.
For series [11], the system named is HepG2. The experiment in a line: Induction of apoptosis in human HepG2 cells assessed as viable cells at IC50 concentration measured after 24 hrs by Annexin V-FITC/PI staining based flow cytometry method (reference value: 87.8%). The class given is functional.
Series [12] deals with MCF7. The experiment in a line: Cytotoxicity against human MCF7 cells assessed as cell viability measured after 24 hrs by MTT assay. The following applies: MCF7, 24 h. The class given is functional, cell-based.
In series [13] the test system is HepG2. The experiment in a line: Inhibition of DNA synthesis in human HepG2 cells assessed as reduction in cell proliferation measured after 24 to 48 hrs by BrdU proliferation assay. The class given is functional, cell-based. Particulars: time 24-48 hrs.
The next series deals with A549. The experiment in a line: Cytotoxicity against human A549 cells assessed as cell viability measured after 24 hrs by MTT assay. Format: functional, cell-based. The following applies: A549, 24 h.
Series [14] deals with HepG2. The experiment in a line: Induction of apoptosis in human HepG2 cells assessed as necrotic cells at IC50 concentration measured after 24 hrs by Annexin V-FITC/PI staining based flow cytometry method (reference value: 4.6%). The class given is functional.
The nature of series [15]: Selectivity index, ratio of IC50 for cytotoxicity against mouse NIH3T3 cells to IC50 for cytotoxicity against human MCF7 cells. The class given is toxicity, cell-based. Particulars: NIH3T3 cells versus MCF7 cells, read-out: Ratio IC50.
Series [16] is described as follows: Selectivity index, ratio of IC50 for cytotoxicity against mouse NIH3T3 cells to IC50 for cytotoxicity against human HepG2 cells. The class given is toxicity, cell-based. Particulars: NIH3T3 cells versus HepG2 cells, read-out: Ratio IC50.
The subject of another series is NIH3T3. The experiment in a line: Cytotoxicity against mouse NIH3T3 cells assessed as cell viability measured after 24 hrs by MTT assay. Particulars: NIH3T3, 24 h. The class given is cell-based.
Series [17] is described as follows: Selectivity index, ratio of IC50 for cytotoxicity against mouse NIH3T3 cells to IC50 for cytotoxicity against rat C6 cells. The class given is toxicity, cell-based. Particulars: NIH3T3 cells versus C6 cells, read-out: Ratio IC50.
In series [18] the test system is HT-29. The experiment in a line: Cytotoxicity against human HT-29 cells assessed as cell viability measured after 24 hrs by MTT assay. The following applies: HT-29, 24 h. Format: functional, cell-based.
The test system of series [19] is MCF7. The experiment in a line: Induction of apoptosis in human MCF7 cells assessed as viable cells at IC50 concentration measured after 24 hrs by Annexin V-FITC/PI staining based flow cytometry method (reference value: 94.9%). The class given is functional.
Series [20] has as its system MCF7. The experiment in a line: Induction of apoptosis in human MCF7 cells assessed as late apoptotic cells at IC50 concentration measured after 24 hrs by Annexin V-FITC/PI staining based flow cytometry method (reference value: 1.8%). Format: functional.
Series [21] deals with HT-29. The experiment in a line: Induction of apoptosis in human HT-29 cells assessed as viable cells at IC50 concentration measured after 24 hrs by Annexin V-FITC/PI staining based flow cytometry method (reference value: 90.3%). The class given is functional.
In series [22] the test system is MCF7. The experiment in a line: Induction of apoptosis in human MCF7 cells assessed as early apoptotic cells at IC50 concentration measured after 24 hrs by Annexin V-FITC/PI staining based flow cytometry method (reference value: 2.2%). Format: functional.
Series [23] concerns HT-29. The experiment in a line: Induction of apoptosis in human HT-29 cells assessed as early apoptotic cells at IC50 concentration measured after 24 hrs by Annexin V-FITC/PI staining based flow cytometry method (reference value: 1.1%). Format: functional.
Series [24] concerns HT-29. The experiment in a line: Induction of apoptosis in human HT-29 cells assessed as necrotic cells at IC50 concentration measured after 24 hrs by Annexin V-FITC/PI staining based flow cytometry method (reference value: 7.2%). Format: functional.
The test system of series [25] is HT-29. The experiment in a line: Induction of apoptosis in human HT-29 cells assessed as late apoptotic cells at IC50 concentration measured after 24 hrs by Annexin V-FITC/PI staining based flow cytometry method (reference value: 1.5%). Format: functional.
Series [26] has as its system HT-29. The experiment in a line: Inhibition of DNA synthesis in human HT-29 cells assessed as reduction in cell proliferation measured after 24 to 48 hrs by BrdU proliferation assay. The class given is functional, cell-based. Particulars: time 24-48 hrs.
For series [27], the system named is MCF7. The experiment in a line: Inhibition of DNA synthesis in human MCF7 cells assessed as reduction in cell proliferation measured after 24 to 48 hrs by BrdU proliferation assay. The following applies: time 24-48 hrs. The class given is functional, cell-based.
Series [28] relates to MCF7. The experiment in a line: Induction of apoptosis in human MCF7 cells assessed as necrotic cells at IC50 concentration measured after 24 hrs by Annexin V-FITC/PI staining based flow cytometry method (reference value: 1%). Format: functional.

As a reminder, the IC50 is the point on the concentration scale where inhibition reaches its midpoint.

Consider `CN(C)CCN1CCN(CC(=O)Nc2ccc(-c3nc4cc(Cl)ccc4o3)cc2)CC1`, for which the Activity came to 10.7% in the series with C6 [1]; 10.3% in the series with HepG2 [6]; 3.7% in the series with HepG2 [10]; 85.2% with HepG2 [11]; 0.8% in the series with HepG2 [14]. Moreover, the IC50 in the series on C6 [2] amounted to 1.03 µM; in the series with HepG2 [4], 2.64 µM; in the series on MCF7 [12], 7.92 µM; in the series on A549, 7.1 µM; in the series on NIH3T3, 28.7 µM; in the series on HT-29 [18], 4.47 µM. Also, the Drug metabolism entry in series [3] and in series [5] was “Metabolite_Detected” throughout. The selectivity ratio in series [7] was 6.41; in [9], 4.04; in [15], 3.62; in series [16], 10.9; in series [17] it was 27.8. Further, the inhibition entry with C6 [8] and in the series with HepG2 [13] was “Dose-dependent effect” in each case.

For `COc1cccc2c1C(=O)c1c(O)c3c(c(O)c1C2=O)C[C@@](O)(C(=O)CO)C[C@@H]3O[C@H]1C[C@H](N)[C@H](O)[C@H](C)O1` [DOXORUBICIN], the Activity in the series with C6 [1] is listed as 35.7%; in the series on MCF7 [19] it was 42.9%; with MCF7 [20], 49.3%; in the series with HT-29 [21], 88%; in the series with HepG2 [6], 21.4%; with MCF7 [22], 1%. In addition, the Activity in the series with HT-29 [23] was 1.9%; with HepG2 [10], 0.9%; with HepG2 [11], 73.6%; with HepG2 [14] it was 4.2%; in the series on HT-29 [24], 3.5%; with HT-29 [25], 6.6%. In the series with MCF7 [28], the Activity was found to be 6.8%. Further, the IC50 in the series on C6 [2] is 25.6 µM; in the series on HepG2 [4], 18 µM; in the series with A549, 10.8 µM; with HT-29 [18], 16.3 µM. Moreover, the inhibition entry in the series with C6 [8], with HepG2 [13], in the series on HT-29 [26] and with MCF7 [27] was “Dose-dependent effect” throughout.

As to `CN(C)CCCN1CCN(CC(=O)Nc2ccc(-c3nc4cc(Cl)ccc4o3)cc2)CC1`, the Activity in the series with C6 [1] is 13.6%; in the series with MCF7 [19], 25.9%; in the series on MCF7 [20] it was 46.4%; in the series on HT-29 [21] it was 85.5%; in the series with HepG2 [6], 27.9%; in the series on MCF7 [22], 23.7%. In addition, the Activity in the series on HT-29 [23] is reported as 6.5%; in the series on HepG2 [10], 8.3%; in the series on HepG2 [11], 62.6%; in the series on HepG2 [14] it was 1.1%; in the series with HT-29 [24] it was 0.6%; in the series on HT-29 [25], 7.4%. Besides, the Activity in the series on MCF7 [28] stood at 3.9%. For the same molecule, the IC50 in the series on C6 [2] was 0.91 µM; with HepG2 [4], 1.25 µM; with MCF7 [12], 1.65 µM; in the series on A549 it was 4.32 µM; in the series with NIH3T3, 25.8 µM; with HT-29 [18], 1.64 µM. The Drug metabolism entry in series [3] and in [5] was “Metabolite_Detected” each time. For the same molecule, the selectivity ratio in series [7] amounted to 15.7; in series [9], 5.96; in series [15], 15.6; in series [16], 20.6; in series [17], 28.3. Further, the inhibition entry in the series with C6 [8], in the series with HepG2 [13], with HT-29 [26] and in the series with MCF7 [27] was “Dose-dependent effect” each time.

For `Cc1ccc2oc(-c3ccc(NC(=O)CN4CCN(CCCN(C)C)CC4)cc3)nc2c1`, the Activity in the series on C6 [1] was determined as 14%. The IC50 with C6 [2] worked out at 1.81 µM; in the series on HepG2 [4], 3.16 µM; with MCF7 [12], 19.1 µM; in the series on A549, 10.6 µM; in the series with NIH3T3, 26.4 µM; in the series with HT-29 [18], 3.89 µM. Besides, the selectivity ratio in series [7] worked out at 6.79; in [9] it was 2.5; in series [15], 1.38; in series [16], 8.36; in [17], 14.6. Moreover, the inhibition result in the series with C6 [8] was “Dose-dependent effect”.

On to `Cc1cc(-c2nc3ccccc3o2)ccc1NC(=O)CN1CCN(CCCN(C)C)CC1`, for which the IC50 stood at 38.7 µM in the series with C6 [2]; 2.16 µM with HepG2 [4]; 11.3 µM with MCF7 [12]; 22.1 µM in the series with A549; 33.5 µM in the series on NIH3T3; 15.5 µM in the series on HT-29 [18]. Besides, the Activity is reported as 16.7% in the series with HepG2 [6], 5% with HepG2 [10], 77.5% in the series with HepG2 [11] and 0.8% with HepG2 [14]. For the same molecule, the selectivity ratio in [7] was 2.17; in [9] it was 1.52; in series [15], 2.97; in [16], 15.5; in series [17] it was 0.86. Also, the inhibition entry in the series on HepG2 [13] was “Dose-dependent effect”.

With `Cc1ccc2oc(-c3ccc(NC(=O)CN4CCN(CCN(C)C)CC4)cc3)nc2c1`, the Activity with C6 [1] worked out at 19.3%; with HT-29 [21] it was 76%; with HT-29 [23], 15%; in the series on HT-29 [24], 0.4%; with HT-29 [25], 8.5%. Besides, the IC50 is 1.63 µM in the series with C6 [2]; 1.27 µM in the series with HepG2 [4]; 23.7 µM with MCF7 [12]; 3.66 µM in the series with A549; 28.9 µM in the series on NIH3T3; 1.79 µM with HT-29 [18]. Further, the selectivity ratio turned out to be 16.2 in series [7]; 7.9 in [9]; 1.22 in [15]; 22.8 in [16]; 17.8 in series [17]. Further, the inhibition entry in the series on C6 [8] and with HT-29 [26] was “Dose-dependent effect” in each case.
